Key:
[1] = system: HeLa cells; assay: Salmonella invasion of indole-treated HeLa cells (colonization resistance); format: cell-based; conditions: host cells treated with indole
[2] = system: DSS colitis; assay: BMDC transfer in murine DSS colitis model; format: in vivo, mouse; conditions: mice transferred i.p. with BMDCs conditioned with indole, 5% DSS day 7-14, endpoint day 20
Description: FIGS. 21A and 21B graphically illustrate that the in vivo transfer of indole-conditioned DCs prevented shortening of colon in a murine DSS colitis model. BMDCs were cultured with indole, RA, or DMF from day 3. Two million BMDCs were transferred via i.p. injection to WT C57BL/6 mice on days 0, 6, and 9 of the experiment. Mice received 5% dextran sulfate sodium (DSS) ad libitum in their drinking water from day 7 through day 14. Mice were euthanized on day 20 and colons were immediately removed and measured for length (FIG. 21A) and weight (FIG. 21B). n=4 mice/group. *p<0.05 by one-way ANOVA followed by Dunnett's post-test, comparing to unmanipulated control colons.
A hallmark pathological sign of colitis is shortening of the colon, mediated by abscesses forming in the intestinal crypts that disrupt the mucosal architecture and are later replaced by scar tissue. […] Shortening of the colon is an established indicator of colitis pathology in the murine model of DSS colitis.
BMDCs were cultured with indole, RA, or DMF from day 3 as described above. BMDCs were washed, counted, and resuspended in sterile PBS (Ca—Mg—) for transfer to WT C57BL/6 recipients. Two million BMDCs were transferred via i.p. injection on days 0, 6, and 9 of the experiment. Mice received 5% dextran sulfate sodium (DSS, MW=36,000-50,000; MP Biomedicals) ad libitum in their drinking water from day 7 through day 14. […]

[3] = system: naïve CD4+CD25− T cells; assay: DC-T cell co-culture, polyclonal stimulation: Foxp3+ Treg induction; format: cell-based, mouse; conditions: naïve T cells co-cultured 72 hours with BMDCs conditioned with indole
Description: FIG. 15 is a set of FACS plots showing that indole-conditioned DCs preferentially induce Foxp3+ Tregs (polyclonal stimulation). Naïve wild-type CD4+CD25− T cells were sorted and co-cultured with indole- or DMF-conditioned BMDCs. Cells were cultured together for 72 hours in the presence of soluble α-CD3 (5 ug/ml) as well as TGF-β (2 ng/ml) with or without IL-2 (100 U/ml). Subsequently, cells were stained for the transcription factor Foxp3 and analyzed by flow cytometry. Shaded gray histograms represent unstained controls. Representative data from one of four experiments is shown.
To investigate whether indole-conditioned DCs preferentially induce Tregs, a co-culture system using FACS-sorted wild-type naïve CD4+CD25− T cells was employed. These naïve T cells were activated by antibodies against CD3 and CD28 in the presence of indole-conditioned BMDCs and cultured for 72 hours. Under this platform for polyclonal stimulation, a 2-fold increase in Treg induction in indole-DC cultures compared to controls was observed (FIG. 15). Additionally, the inventors pursued the same question in a more physiologically relevant model; i.e., under monoclonal T cell stimulation. […]

[4] = system: naïve CD4+CD25− T cells; assay: T cell activation in the presence of BMDC supernatant: Treg induction; format: cell-based, mouse; conditions: T cells on α-CD3/α-CD28 plates, 72 hours
[5] = system: naïve CD4+CD25− T cells; assay: DC-T cell co-culture without cell contact (Transwell): Treg induction; format: cell-based, mouse; conditions: exogenous TGF-β added, 3 days

## c1ccc2[nH]ccc2c1 [Indole, indole]
[1]
  reduction of Salmonella invasion of indole-treated HeLa cells: 70%
[2]
  average colon length: ~6 cm
[3]
  increase in Treg induction compared to controls: 2 fold
[4]
  Treg induction by supernatant of conditioned BMDCs relative to solvent control DCs: No significant induction of Tregs
[5]
  Treg induction by conditioned DCs without cell contact over solvent controls: did not enhance Treg skew

From patent publication US11612586B2, “Indole regulation of antigen presenting cells” (THE TEXAS A&M UNIVERSITY SYSTEM, priority 2016, dated 2023)
